Calls of active or inactive are those of the source. No cut-off for these calls is given here.
Experiments:
[1] = molecular target: Lysosomal alpha-glucosidase (Homo sapiens) (UniProt P10253); experiment: Inhibition of human recombinant acid alpha-glucosidase at 100 uM using 4-MU-glycopyranoside as substrate by spectrophotometric analysis
[2] = molecular target: T1, Alpha-galactosidase A (Homo sapiens) (UniProt P06280); experiment: Inhibition of human recombinant alpha-galactosidase A at 100 uM using 4-MU-alpha-d-galactopyranoside as substrate by fluorescence assay relative to control
T1 sequence (whole entry): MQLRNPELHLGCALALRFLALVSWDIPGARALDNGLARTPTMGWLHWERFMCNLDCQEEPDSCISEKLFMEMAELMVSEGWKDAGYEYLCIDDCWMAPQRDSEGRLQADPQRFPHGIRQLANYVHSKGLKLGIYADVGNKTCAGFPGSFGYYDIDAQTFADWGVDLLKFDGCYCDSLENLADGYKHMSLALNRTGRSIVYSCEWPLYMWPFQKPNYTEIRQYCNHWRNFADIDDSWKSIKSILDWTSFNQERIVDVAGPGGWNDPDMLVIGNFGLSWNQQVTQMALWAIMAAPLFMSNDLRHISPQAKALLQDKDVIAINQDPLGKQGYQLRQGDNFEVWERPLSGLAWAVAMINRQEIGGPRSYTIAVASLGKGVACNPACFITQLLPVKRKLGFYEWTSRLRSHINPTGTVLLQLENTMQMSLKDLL

[3] = molecular target: T2, Lysosomal acid glucosylceramidase (Homo sapiens) (UniProt P04062); experiment: Inhibition of human recombinant acid beta-glucosidase at 100 uM using 4-MU-glycopyranoside as substrate by spectrophotometric analysis
T2 sequence (whole entry): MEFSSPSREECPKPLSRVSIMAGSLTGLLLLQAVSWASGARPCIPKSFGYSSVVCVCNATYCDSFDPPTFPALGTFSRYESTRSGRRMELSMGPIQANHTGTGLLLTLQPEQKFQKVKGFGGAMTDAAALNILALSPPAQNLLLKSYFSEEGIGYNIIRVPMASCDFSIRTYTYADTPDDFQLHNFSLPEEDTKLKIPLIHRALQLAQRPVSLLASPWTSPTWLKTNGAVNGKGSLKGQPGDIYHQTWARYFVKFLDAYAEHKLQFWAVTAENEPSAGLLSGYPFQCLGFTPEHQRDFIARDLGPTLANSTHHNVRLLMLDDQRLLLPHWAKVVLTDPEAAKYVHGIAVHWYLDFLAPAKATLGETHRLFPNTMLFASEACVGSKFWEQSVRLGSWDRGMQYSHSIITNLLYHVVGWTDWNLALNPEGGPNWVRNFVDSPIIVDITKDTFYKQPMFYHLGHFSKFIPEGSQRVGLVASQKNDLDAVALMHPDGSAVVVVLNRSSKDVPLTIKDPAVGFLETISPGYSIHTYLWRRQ

[4] = molecular target: Alpha-galactosidase (Coffea arabica) (UniProt Q42656); experiment: Inhibition of green coffee beans alpha-galactosidase at 100 uM using 4-MU-glycopyranoside as substrate by spectrophotometric analysis relative to control
[5] = molecular target: T3, Lysosomal alpha-mannosidase (Homo sapiens) (UniProt O00754); experiment: Inhibition human recombinant acid alpha-mannosidase at 100 uM using p-nitrophenyl-glycopyranoside as substrate by spectrophotometric analysis
T3 sequence (whole entry): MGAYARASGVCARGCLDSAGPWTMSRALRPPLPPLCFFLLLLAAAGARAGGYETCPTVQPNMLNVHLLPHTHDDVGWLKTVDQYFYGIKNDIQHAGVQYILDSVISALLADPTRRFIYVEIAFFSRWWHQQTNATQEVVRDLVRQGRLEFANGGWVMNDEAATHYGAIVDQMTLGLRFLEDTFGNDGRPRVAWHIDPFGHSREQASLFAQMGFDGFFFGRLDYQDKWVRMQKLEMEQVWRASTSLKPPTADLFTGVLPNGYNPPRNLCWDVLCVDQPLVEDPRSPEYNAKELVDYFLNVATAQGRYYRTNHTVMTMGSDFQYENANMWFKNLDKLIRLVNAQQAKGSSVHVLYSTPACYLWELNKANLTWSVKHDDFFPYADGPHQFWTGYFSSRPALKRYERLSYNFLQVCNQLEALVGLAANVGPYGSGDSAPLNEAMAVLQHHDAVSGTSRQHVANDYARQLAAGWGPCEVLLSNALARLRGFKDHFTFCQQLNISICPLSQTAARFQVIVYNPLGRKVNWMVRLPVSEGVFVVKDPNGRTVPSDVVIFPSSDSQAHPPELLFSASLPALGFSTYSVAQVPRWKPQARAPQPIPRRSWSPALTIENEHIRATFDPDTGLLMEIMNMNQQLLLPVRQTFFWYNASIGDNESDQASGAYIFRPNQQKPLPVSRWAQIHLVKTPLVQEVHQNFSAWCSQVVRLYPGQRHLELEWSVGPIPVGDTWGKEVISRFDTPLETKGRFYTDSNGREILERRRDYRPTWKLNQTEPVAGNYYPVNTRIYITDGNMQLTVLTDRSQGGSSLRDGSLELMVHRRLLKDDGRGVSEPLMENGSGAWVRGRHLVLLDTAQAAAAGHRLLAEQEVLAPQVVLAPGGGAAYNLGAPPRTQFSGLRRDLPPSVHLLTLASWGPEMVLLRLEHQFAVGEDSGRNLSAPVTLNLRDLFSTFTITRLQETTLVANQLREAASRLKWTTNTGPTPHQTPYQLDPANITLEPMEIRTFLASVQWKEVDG

[6] = molecular target: T4, Beta-galactosidase (Homo sapiens) (UniProt P16278); experiment: Inhibition of human lymphocyte beta-galactosidase at 100 uM using 4-MU-glycopyranoside as substrate by spectrophotometric analysis
T4 sequence (whole entry): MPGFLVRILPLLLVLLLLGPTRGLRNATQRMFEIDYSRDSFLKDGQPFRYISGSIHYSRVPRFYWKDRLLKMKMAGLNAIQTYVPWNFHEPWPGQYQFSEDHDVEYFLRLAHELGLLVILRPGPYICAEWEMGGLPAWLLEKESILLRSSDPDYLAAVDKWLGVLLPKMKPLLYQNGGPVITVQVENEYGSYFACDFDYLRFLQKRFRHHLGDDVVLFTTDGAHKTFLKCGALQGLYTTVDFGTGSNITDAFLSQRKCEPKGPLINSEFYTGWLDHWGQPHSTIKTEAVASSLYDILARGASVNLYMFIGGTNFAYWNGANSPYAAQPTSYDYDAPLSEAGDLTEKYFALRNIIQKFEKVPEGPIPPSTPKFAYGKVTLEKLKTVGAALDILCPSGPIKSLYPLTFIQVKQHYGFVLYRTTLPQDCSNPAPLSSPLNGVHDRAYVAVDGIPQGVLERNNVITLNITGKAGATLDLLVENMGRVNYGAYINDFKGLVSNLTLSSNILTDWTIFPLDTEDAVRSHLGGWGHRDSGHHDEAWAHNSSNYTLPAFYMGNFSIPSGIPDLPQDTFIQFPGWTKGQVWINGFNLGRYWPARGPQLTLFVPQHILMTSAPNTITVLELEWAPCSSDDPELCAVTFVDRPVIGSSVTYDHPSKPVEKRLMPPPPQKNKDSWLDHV

Chain of Alpha-galactosidase (Coffea arabica) (Q42656 16-378 limits assumed): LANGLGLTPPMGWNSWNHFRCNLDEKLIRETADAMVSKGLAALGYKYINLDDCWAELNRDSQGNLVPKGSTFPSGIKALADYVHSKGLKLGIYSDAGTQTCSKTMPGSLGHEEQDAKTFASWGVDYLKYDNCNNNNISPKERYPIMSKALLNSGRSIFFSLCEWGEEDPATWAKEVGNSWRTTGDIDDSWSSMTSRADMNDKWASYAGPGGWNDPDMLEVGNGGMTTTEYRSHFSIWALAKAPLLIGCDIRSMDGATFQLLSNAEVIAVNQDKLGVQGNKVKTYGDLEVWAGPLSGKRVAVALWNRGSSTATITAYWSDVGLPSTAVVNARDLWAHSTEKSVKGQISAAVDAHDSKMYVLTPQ

| SMILES | inhibition [1] | inhibition [2] [%] | inhibition [3] | inhibition [4] | inhibition [5] | inhibition [6] |
| --- | --- | --- | --- | --- | --- | --- |
| NC[C@H]1NC[C@H](O)[C@H](O)[C@H]1O | inactive | 19 | inactive | inactive | inactive | inactive |
| NC[C@@H]1NC[C@H](O)[C@H](O)[C@H]1O | inactive | 45 | inactive | 13% | inactive | inactive |
| NC[C@H]1NC[C@H](O)[C@@H](O)[C@H]1O | inactive | 99 | inactive | > 20% | inactive | inactive |
| O=C(CCCCC1CCCCC1)NC[C@H]1NC[C@H](O)[C@@H](O)[C@H]1O | inactive | 99 | inactive | 57% | inactive | inactive |
| NC[C@@H]1NC[C@H](O)[C@@H](O)[C@H]1O | inactive | 30 | inactive | 9% | inactive | inactive |

The next lines start with the values.

| inhibition [1] | inhibition [2] [%] | inhibition [3] | inhibition [4] | inhibition [5] | inhibition [6] | SMILES |
| --- | --- | --- | --- | --- | --- | --- |
| inactive | 99 | inactive | 47% | inactive | inactive | COc1ccc(Br)cc1/C=C/C(=O)NC[C@H]1NC[C@H](O)[C@@H](O)[C@H]1O |
| inactive | 99 | inactive | 29% | inactive | inactive | CC(C)=CCCC(C)CC(=O)NC[C@H]1NC[C@H](O)[C@@H](O)[C@H]1O (stereo not given in full) |
| inactive | 99 | inactive | 41% | inactive | inactive | O=C(/C=C/c1ccc(C(F)(F)F)cc1)NC[C@H]1NC[C@H](O)[C@@H](O)[C@H]1O |
| inactive | 99 | inactive | 56% | inactive | inactive | O=C(/C=C/c1cccc(Br)c1)NC[C@H]1NC[C@H](O)[C@@H](O)[C@H]1O |
| inactive | 99 | inactive | 37% | inactive | inactive | O=C(CCC1CCCC1)NC[C@H]1NC[C@H](O)[C@@H](O)[C@H]1O |
